Experimental data: patent publication US20240341301A1 (The Regents of the University of Michigan, priority 2023, published 2024)

Assays:
[1] = tested on: human donor hearts; assay: Mass spectrometry metabolomics of cold-preserved human donor hearts
Experimental: Pig hearts underwent ex-vivo perfusion after preservation for 4 or 10 hours. Approval for human heart procurement was obtained from the University of Michigan Institutional Review Board (HUM00131275). Human donor hearts from deceased brain death donors were procured as per standard clinical protocols from the Gift of Life Michigan (GOLM) organ procurement facility. Myocardial biopsies (˜5 mm^3) of LV were biopsied immediately after cardioplegic arrest (0 h) and after 8 hours (8 h) of cold storage in a cooler containing ice. […] Causes of death were stroke (n=4), trauma (n=2), drug overdose (n=1), and cardiac arrest (n=1). Heart tissue were either fixed in formalin or snap frozen in liquid N2 for later analysis.
(§1) Metabolomics measurements were performed by the Michigan Regional Comprehensive Metabolomics Resource Core (Ann Arbor, MI, USA).

[2] = cited from earlier work
[3] = tested on: murine hearts; assay: Mass spectrometry metabolomics of preserved or transplanted murine hearts; parameters: species or system mouse
Experimental: Male and female WT or Irg1^−/− mice (Jackson laboratories, Bar Harbor, ME) were anesthetized intraperitoneally with 80 mg/kg ketamine and 5 mg/kg xylazine, anticoagulated with heparin (2,000 U/kg iv), and the heart was rapidly exposed through a sternal incision. The aorta was cannulated and retrograde perfused in-situ with HTK solution±HDAC inhibitors. After cannulation, the heart dissected free, the left atrium was opened. For 4-OI (Cayman Chemical, 25374) experiments, donor mice were treated 4-OI (dissolved in 40% β-Cyclodextrin, 50 mg/kg intraperitoneally) or vehicle control (40% β-Cyclodextrin intraperitoneally) 2 hours prior to donor heart procurement. After dissection, the heart was stored at 4° C. with HTK or HTK with VPA for a pre-designated duration. The hearts were then mounted on a Radnoti mouse Langendorff apparatus (ADInstruments inc., Colorado Springs, CO) in constant-pressure mode (˜70 mmHg) with a modified Krebs-Henseleit buffer (KHB; in mM: 118 NaCl, 4.7 KCl, 1.25 CaCl2), 1.66 MgSO4, 24.88 NaHCO3, 1.18 KH2PO4, 5.55 glucose, and 2.0 Na-pyruvate). A balloon was placed in the LV through the left atrium and left ventricular diastolic pressure was set to ˜8 mmHg at initiation. The heart was perfused with modified Krebs-Henseleit buffer for 30 min to stabilize and then hemodynamics measurements were recorded. Myocardial temperature was maintained at 37° C. LabChart software (ADInstruments inc., Colorado Springs, CO) was used to record ventricular function, perfusion pressures, cardiac chamber temperature and myocardial temperature. After perfusing the heart for 60 minutes, the heart was removed from the ex-vivo perfusion apparatus for specimen collection. Tissue was immediately placed in liquid N2 or treated with 4% formalin.
Cardiac grafts procured from WT C57Bl/6J mice following arrest with cold (4° C.) HTK±VPA were transplanted into the right neck of sex-matched syngeneic C57BL/6J recipient mice following 16 hours of cold (4° C.) preservation in corresponding HTK±VPA solution as previously described (59). A cuff technique was used to connect the recipient right common carotid artery and right external jugular vein to the donor ascending aorta and pulmonary artery, respectively. Following reperfusion in the recipient, successful grafts were expected to resume a regular heartbeat. At 24 hours after reperfusion, the surgical incision was reopened and a small conductance catheter was introduced into the LV to measure contractility and relaxation.
as §1

[4] = human hearts during cardiac preservation
[5] = cold static preservation as well as transplantation
[6] = following murine heart transplantation
[7] = mice hearts during cardiac preservation

Compound: CCCC(CCC)C(=O)O [VPA, 2-Propyl-pentanoic acid]
- decrease in itaconate during cold storage ([1]; cold preservation, HTK±VPA): limited
- succinate production ([1]; cold preservation, HTK±VPA): reduced
- fumarate concentration in VPA-treated group [1, 4]: 43.5±6.6 pmol/mg tissue
- itaconate concentration in VPA-treated group [1, 4]: 8.0±1.0 pmol/mg tissue
- water solubility [2]: water soluble
- itaconate [3, 5]: increased
- succinate [3, 5]: decreased
- fumarate [3, 6]: increased
- glutamate [3, 6]: decreased
- malate [3, 6]: increased
- fumarate concentration in VPA-treated group [3, 7]: 29.0±7.5 pmol/mg tissue
- itaconate concentration in VPA-treated group [3, 7]: 8.8±0.8 pmol/mg tissue
- acetyl-CoA, citrate, α-ketoglutarate, fumarate, or malate abundance ([3]; murine hearts during cold preservation): no changes
